Experimental data: patent publication US11154529B2, “Phosphaplatin liquid formulations” (Phosplatin Therapeutics Inc., priority 2016, dated 2021)

Assay: Ready-to-use formulation stability at 40° C./75% RH, 5 mg/mL (R,R)-pyrodach-2 in 10 mM Sodium Phosphate Buffer, 5.2 mM Sodium Pyrophosphate at pH 7.5, 10 mL vials
Assay type: physicochemical
Protocol: Stability data on the formulation with added pyrophosphate at 40° C./75% RH in Table 12 is even more dramatic. […] [table] [table] • Transfer 1419.6 mg±14.0 mg of dibasic sodium phosphate anhydrous to a 1-L volumetric flask. • Transfer 2298.5 mg±23.0 mg of tetrasodium pyrophosphate decahydrate into the same 1-L volumetric flask. • Fill flask to approximately 75% volume with sterile water for injection, swirl as needed to dissolve all solids. • Volumetrically transfer 8.0 mL of 1N NaOH to flask. • Dilute flask to volume with water and mix well. • Record the pH of final solution. This is the vehicle. • Determine the tare weight of a 500-mL compounding vessel with stir bar. • Transfer 2500.1 mg±25.0 mg of (R,R)-pyrodach-2 to the vessel. • Transfer 450.0 g±0.1 g of the vehicle to the vessel and stir to dissolve solids. • Determine the initial pH of the solution. • Slowly adjust the pH of the solution to 7.5±0.1 by adding additional N NaOH. • Determine the gross solution weight and dilute the solution weight to 500.0 g±0.1 g by adding additional vehicle into the compounding vessel. Density=1.00 g/mL. • Stir the final solution for an additional 5 minutes. • Determine the pH of final solution. • Pass the entire solution through a 0.22 μm PVDF Stericup filter into a sterile collection vessel. • Conduct the following in a laminar flow hood; fill 10-mL sterile tubing vials with 10 mL of solution, stoppered with a sterile Flurotec stopper, and crimp-capped with a flip-off seal. • Place vials in 40° C./75% RH and 25° C./60% RH stability chambers. HPLC method in Example 3 to monitor purity and impurities.

For O=P1(O)OP(=O)(O)[O][Pt]2([NH][C@@H]3CCCC[C@H]3[NH]2)[O]1 (stereo partly drawn) [(R,R)-pyrodach-2, (R,R)-trans-1,2-cyclohexanediamine-(dihydrogenpyrophosphato)platinum(II)], the “Individual Related Substances PT-112 Dimer” value (1 Month) was “ND (ND = Not Detected, or <0.05%)”, the “Individual Related Substances RRT 0.28-0.29” value (1 Month) was 0.10% and the “Individual Related Substances RRT 0.50-0.51” value (1 Month) was 0.10%. For the same molecule, the “Individual Related Substances RRT 0.58” value (1 Month) was 0.41%, the “Individual Related Substances RRT 0.73-0.74” value (1 Month) was 0.68% and the “Individual Related Substances RRT 0.92” value (1 Month) was “ND (ND = Not Detected, or <0.05%)”. The “Individual Related Substances RRT 1.57” value (1 Month) was “ND (ND = Not Detected, or <0.05%)”, the “Individual Related Substances RRT 3.66-3.71” value (1 Month) was “ND (ND = Not Detected, or <0.05%)” and the “Potency (Assay)” value (1 Month) was 101.6%. The “Total Related Substances” value (1 Month) was 1.3%, the pH (1 Month) was 7.6 and the “Individual Related Substances PT-112 Dimer” value (2 Months) was “ND (ND = Not Detected, or <0.05%)”. The “Individual Related Substances RRT 0.28-0.29” value (2 Months) was 0.19%, the “Individual Related Substances RRT 0.50-0.51” value (2 Months) was 0.19% and the “Individual Related Substances RRT 0.58” value (2 Months) was 0.41%. The “Individual Related Substances RRT 0.73-0.74” value (2 Months) was 0.88%, the “Individual Related Substances RRT 0.92” value (2 Months) was “ND (ND = Not Detected, or <0.05%)” and the “Individual Related Substances RRT 1.57” value (2 Months) was “ND (ND = Not Detected, or <0.05%)”. The “Individual Related Substances RRT 3.66-3.71” value (2 Months) was 0.07%, the “Potency (Assay)” value (2 Months) was 103.8% and the “Total Related Substances” value (2 Months) was 1.7%. The pH (2 Months) was 7.6, the “Individual Related Substances PT-112 Dimer” value (3 Months) was “ND (ND = Not Detected, or <0.05%)” and the “Individual Related Substances RRT 0.28-0.29” value (3 Months) was 0.16%. The “Individual Related Substances RRT 0.50-0.51” value (3 Months) was 0.16%, the “Individual Related Substances RRT 0.58” value (3 Months) was 0.48% and the “Individual Related Substances RRT 0.73-0.74” value (3 Months) was 0.86%. For the same molecule, the “Individual Related Substances RRT 0.92” value (3 Months) was “ND (ND = Not Detected, or <0.05%)”, the “Individual Related Substances RRT 1.57” value (3 Months) was “ND (ND = Not Detected, or <0.05%)” and the “Individual Related Substances RRT 3.66-3.71” value (3 Months) was 0.11%. The “Potency (Assay)” value (3 Months) was 101.5%, the “Total Related Substances” value (3 Months) was 1.8% and the pH (3 Months) was 7.5. For the same molecule, the “Individual Related Substances PT-112 Dimer” value (6 Months) was “ND (ND = Not Detected, or <0.05%)”, the “Individual Related Substances RRT 0.28-0.29” value (6 Months) was 0.17% and the “Individual Related Substances RRT 0.50-0.51” value (6 Months) was 0.22%. For the same molecule, the “Individual Related Substances RRT 0.58” value (6 Months) was 0.47%, the “Individual Related Substances RRT 0.73-0.74” value (6 Months) was 0.81% and the “Individual Related Substances RRT 0.92” value (6 Months) was “ND (ND = Not Detected, or <0.05%)”. The “Individual Related Substances RRT 1.57” value (6 Months) was “ND (ND = Not Detected, or <0.05%)”, the “Individual Related Substances RRT 3.66-3.71” value (6 Months) was 0.18% and the “Potency (Assay)” value (6 Months) was 102.8%. For the same molecule, the “Total Related Substances” value (6 Months) was 1.9%, the pH (6 Months) was 7.5 and the “Individual Related Substances PT-112 Dimer” value (Initial) was 0.16%. The “Individual Related Substances RRT 0.28-0.29” value (Initial) was 0.14%, the “Individual Related Substances RRT 0.50-0.51” value (Initial) was 0.08% and the “Individual Related Substances RRT 0.58” value (Initial) was 0.34%. The “Individual Related Substances RRT 0.73-0.74” value (Initial) was 0.83%, the “Individual Related Substances RRT 0.92” value (Initial) was 0.05% and the “Individual Related Substances RRT 1.57” value (Initial) was 0.12%. The “Individual Related Substances RRT 3.66-3.71” value (Initial) was “ND (ND = Not Detected, or <0.05%)”, the “Potency (Assay)” value (Initial) was 102.0% and the “Total Related Substances” value (Initial) was 1.7%. The pH (Initial) was 7.5.
